Assay results taken from PubChem BioAssay (NCI).
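Growth conditions: 96-well plates. Treatment: test compound, 48 hours, 5 concentrations. Analysis: linear interpolation between bracketing concentrations; unreached endpoints set to highest concentration. TGI: total growth inhibition.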

How the values were obtained:
Test in all cases: DTP human tumour cell line panel, 48 h
786-0 renal = test system: 786-0 renal
A498 renal = test system: A498 renal
A549 NSCLC = test system: A549 NSCLC
ACHN renal = test system: ACHN renal
BT-549 breast = test system: BT-549 breast
CAKI-1 renal = test system: CAKI-1 renal
CCRF-CEM leukemia = test system: CCRF-CEM leukemia
COLO 205 colon = test system: COLO 205 colon
DU-145 prostate = test system: DU-145 prostate
EKVX NSCLC = test system: EKVX NSCLC
HCC-2998 colon = test system: HCC-2998 colon
HCT-116 colon = test system: HCT-116 colon
HCT-15 colon = test system: HCT-15 colon
HL-60(TB) leukemia = test system: HL-60(TB) leukemia
HOP-62 NSCLC = test system: HOP-62 NSCLC
HOP-92 NSCLC = test system: HOP-92 NSCLC
HS 578T breast = test system: HS 578T breast
HT29 colon = test system: HT29 colon
IGROV1 ovarian = test system: IGROV1 ovarian
K-562 leukemia = test system: K-562 leukemia
KM12 colon = test system: KM12 colon
LOX IMVI melanoma = test system: LOX IMVI melanoma
M14 melanoma = test system: M14 melanoma
MALME-3M melanoma = test system: MALME-3M melanoma
MCF7 breast = test system: MCF7 breast
MDA-MB-231 breast = test system: MDA-MB-231 breast
MDA-MB-435 = test system: MDA-MB-435
MDA-N = test system: MDA-N
MOLT-4 leukemia = test system: MOLT-4 leukemia
NCI-H226 lung = test system: NCI-H226 lung
NCI-H23 lung = test system: NCI-H23 lung
NCI-H460 lung = test system: NCI-H460 lung
NCI-H522 lung = test system: NCI-H522 lung
NCI/ADR-RES ovarian = test system: NCI/ADR-RES ovarian
OVCAR-3 ovarian = test system: OVCAR-3 ovarian
OVCAR-4 ovarian = test system: OVCAR-4 ovarian
OVCAR-5 ovarian = test system: OVCAR-5 ovarian
OVCAR-8 ovarian = test system: OVCAR-8 ovarian
PC-3 prostate = test system: PC-3 prostate
RPMI-8226 leukemia = test system: RPMI-8226 leukemia
RXF 393 renal = test system: RXF 393 renal
SF-268 CNS = test system: SF-268 CNS
SF-295 CNS = test system: SF-295 CNS
SF-539 CNS = test system: SF-539 CNS
SK-MEL-2 melanoma = test system: SK-MEL-2 melanoma
SK-MEL-28 melanoma = test system: SK-MEL-28 melanoma
SK-MEL-5 melanoma = test system: SK-MEL-5 melanoma
SK-OV-3 ovarian = test system: SK-OV-3 ovarian
SN12C renal = test system: SN12C renal
SNB-19 CNS = test system: SNB-19 CNS
SNB-75 CNS = test system: SNB-75 CNS
SR leukemia = test system: SR leukemia
SW-620 colon = test system: SW-620 colon
T-47D breast = test system: T-47D breast
TK-10 renal = test system: TK-10 renal
U251 CNS = test system: U251 CNS
UACC-257 melanoma = test system: UACC-257 melanoma
UACC-62 melanoma = test system: UACC-62 melanoma
UO-31 renal = test system: UO-31 renal

Cc1ccc(NCCN(C)C)c2c(=O)c3cc(O)ccc3oc12 was tested, and the TGI (786-0 renal) was 18.3 µM, the TGI (A498 renal) was 28.2 µM and the TGI (A549 NSCLC) was 20.9 µM. The TGI (ACHN renal) was 17.6 µM, the TGI (BT-549 breast) was 30.6 µM and the TGI (CAKI-1 renal) was 22.9 µM. For the same compound, the TGI (CCRF-CEM leukemia) was 16 µM, the TGI (COLO 205 colon) was 24.2 µM and the TGI (DU-145 prostate) was 28.3 µM. For the same compound, the TGI (EKVX NSCLC) was 29.2 µM, the TGI (HCC-2998 colon) was 24.3 µM and the TGI (HCT-116 colon) was 17.2 µM. The TGI (HCT-15 colon) was 21.2 µM, the TGI (HL-60(TB) leukemia) was 19.4 µM and the TGI (HOP-62 NSCLC) was 23.3 µM. The TGI (HOP-92 NSCLC) was 23.4 µM, the TGI (HS 578T breast) was 19.9 µM and the TGI (HT29 colon) was 23.7 µM. For the same compound, the TGI (IGROV1 ovarian) was 24.9 µM, the TGI (K-562 leukemia) was 12.3 µM and the TGI (KM12 colon) was 25 µM. It also gave a TGI (LOX IMVI melanoma) of 22.2 µM, a TGI (M14 melanoma) of 25.3 µM and a TGI (MALME-3M melanoma) of 27.3 µM. It also gave a TGI (MCF7 breast) of 19.6 µM, a TGI (MDA-MB-231 breast) of 22.2 µM and a TGI (MDA-MB-435) of 24.4 µM. For the same compound, the TGI (MDA-N) was 23 µM, the TGI (MOLT-4 leukemia) was 11.7 µM and the TGI (NCI-H226 lung) was 29.5 µM. For the same compound, the TGI (NCI-H23 lung) was 25.6 µM, the TGI (NCI-H460 lung) was 15 µM and the TGI (NCI-H522 lung) was 21.7 µM. The TGI (NCI/ADR-RES ovarian) was 24.3 µM, the TGI (OVCAR-3 ovarian) was 30.8 µM and the TGI (OVCAR-4 ovarian) was 31.3 µM. It also gave a TGI (OVCAR-5 ovarian) of 29.1 µM, a TGI (OVCAR-8 ovarian) of 19.7 µM and a TGI (PC-3 prostate) of 24.2 µM. For the same compound, the TGI (RPMI-8226 leukemia) was 34.3 µM, the TGI (RXF 393 renal) was 24.4 µM and the TGI (SF-268 CNS) was 17.7 µM. The TGI (SF-295 CNS) was 23 µM, the TGI (SF-539 CNS) was 20.5 µM and the TGI (SK-MEL-2 melanoma) was 35.4 µM. The TGI (SK-MEL-28 melanoma) was 28.4 µM, the TGI (SK-MEL-5 melanoma) was 24 µM and the TGI (SK-OV-3 ovarian) was 26.4 µM. It also gave a TGI (SN12C renal) of 20.2 µM, a TGI (SNB-19 CNS) of 23.7 µM and a TGI (SNB-75 CNS) of 16 µM. The TGI (SR leukemia) was 3.35 µM, the TGI (SW-620 colon) was 17 µM and the TGI (T-47D breast) was 31.5 µM. For the same compound, the TGI (TK-10 renal) was 27.9 µM, the TGI (U251 CNS) was 21 µM and the TGI (UACC-257 melanoma) was 32.7 µM. For the same compound, the TGI (UACC-62 melanoma) was 23 µM and the TGI (UO-31 renal) was 22.1 µM.

In the case of N#C/C(=C\Nc1ccccn1)C(=O)C1CC1, the TGI (786-0 renal) is reported as > 100 µM, the TGI (A498 renal) is reported as > 100 µM and the TGI (A549 NSCLC) is reported as > 100 µM. For the same compound, the TGI (ACHN renal) was > 100 µM, the TGI (BT-549 breast) was > 100 µM and the TGI (CAKI-1 renal) was > 100 µM. For the same compound, the TGI (CCRF-CEM leukemia) was > 100 µM, the TGI (COLO 205 colon) was > 100 µM and the TGI (DU-145 prostate) was > 100 µM. The TGI (EKVX NSCLC) was > 100 µM, the TGI (HCC-2998 colon) was > 100 µM and the TGI (HCT-116 colon) was > 100 µM. The TGI (HCT-15 colon) was > 100 µM, the TGI (HL-60(TB) leukemia) was > 100 µM and the TGI (HOP-62 NSCLC) was > 100 µM. The TGI (HOP-92 NSCLC) was > 100 µM, the TGI (HS 578T breast) was > 100 µM and the TGI (HT29 colon) was > 100 µM. The TGI (IGROV1 ovarian) was > 100 µM, the TGI (K-562 leukemia) was > 100 µM and the TGI (KM12 colon) was > 100 µM. For the same compound, the TGI (LOX IMVI melanoma) was > 100 µM, the TGI (M14 melanoma) was > 100 µM and the TGI (MALME-3M melanoma) was > 100 µM. For the same compound, the TGI (MCF7 breast) was > 100 µM, the TGI (MDA-MB-231 breast) was > 100 µM and the TGI (MDA-MB-435) was > 100 µM. The TGI (MDA-N) was > 100 µM, the TGI (MOLT-4 leukemia) was > 100 µM and the TGI (NCI-H226 lung) was > 100 µM. The TGI (NCI-H23 lung) was > 100 µM, the TGI (NCI-H460 lung) was > 100 µM and the TGI (NCI-H522 lung) was > 100 µM. The TGI (NCI/ADR-RES ovarian) was > 100 µM, the TGI (OVCAR-3 ovarian) was > 100 µM and the TGI (OVCAR-4 ovarian) was > 100 µM. For the same compound, the TGI (OVCAR-5 ovarian) was > 100 µM, the TGI (OVCAR-8 ovarian) was > 100 µM and the TGI (PC-3 prostate) was > 100 µM. The TGI (RPMI-8226 leukemia) was > 100 µM, the TGI (RXF 393 renal) was > 100 µM and the TGI (SF-268 CNS) was > 100 µM. The TGI (SF-295 CNS) was > 100 µM, the TGI (SF-539 CNS) was > 100 µM and the TGI (SK-MEL-2 melanoma) was > 100 µM. For the same compound, the TGI (SK-MEL-28 melanoma) was > 100 µM, the TGI (SK-MEL-5 melanoma) was > 100 µM and the TGI (SK-OV-3 ovarian) was > 100 µM. For the same compound, the TGI (SN12C renal) was > 100 µM, the TGI (SNB-19 CNS) was > 100 µM and the TGI (SNB-75 CNS) was > 100 µM. For the same compound, the TGI (SR leukemia) was > 100 µM, the TGI (SW-620 colon) was > 100 µM and the TGI (T-47D breast) was > 100 µM. The TGI (TK-10 renal) was > 100 µM, the TGI (U251 CNS) was > 100 µM and the TGI (UACC-257 melanoma) was > 100 µM. For the same compound, the TGI (UACC-62 melanoma) was > 100 µM and the TGI (UO-31 renal) was > 100 µM.
